Here are results for 16 molecules from article PMC8562313, “Cytotoxicity of Amino‐BODIPY Modulated via Conjugation with 2‐Phenyl‐3‐Hydroxy‐4(1H)‐Quinolinones” (ChemistryOpen, 2021).

Where two headings read alike, the source gives them in different places.

One data set concerns cancer cell lines. The following applies: cited from earlier work.
The test system of data set [1] is HCT116 (colorectal carcinoma). Kind of data set: Cytotoxic activity against HCT116. The format is cell-based. The following applies: Homo sapiens, HCT-116; average of at least three independent experiments. As for the experimental part: (§1) Finally, the amino‐BODIPY 16 and all prepared conjugates 1–15 were tested for cytotoxic activity against selected cancer cell lines (Table 1). The tests were performed on cancer cell lines derived from solid tumors as well as hematological malignancies: CCRF‐CEM (acute lymphoblastic leukemia), K562 (chronic myeloid leukemia), A549 (lung adenocarcinoma), colorectal carcinoma cell lines HCT116 with and without functional p53 protein HCT116p53, respectively. The panel also included chemoresistant subclone CCRF‐CEM‐DNR (resistant to daunorubicine) overexpressing P‐glycoprotein and/or lung resistance‐related protein (LRP), which are pumps or detoxifying systems responsible for the most common forms of clinical resistance. To evaluate non‐tumor cells′ toxicity, we used human skin fibroblast cell line BJ and lung fibroblast cell line MRC‐5. […] This dye is also slightly toxic to normal fibroblast BJ and MRC with IC50>40 μM and low‐density seeding variants BJ‐LD and MRC‐LD with higher proliferation and no contact inhibition. Connection of amino‐BODIPY 16 with 3‐HQs via non‐cleavable maleimide linker (conjugates 6–10) as well as via cleavable linker (compounds 11–15) causes higher selectivity toward CCRF‐CEM lines. […] The selectivity of conjugates toward leukemia cells could be caused by interaction with a specific target for the CCRF‐CEM or K562 cells, respectively, or by particular transport to these cell lines. The later reason could explain the lower toxicity of amino‐BODIPY released from the conjugate compared to free amino‐BODIPY 16 directly applied to the cells.

The test system of data set [2] is skin fibroblast cell line BJ. Kind of data set: Toxicity to non-tumor fibroblasts BJ. Format: cell-based, human. As for the experimental part:
as §1

Data set [3] concerns MRC‐LD (low‐density seeding variant). Kind of data set: Toxicity to non-tumor fibroblasts MRC-LD. The format is cell-based. The conditions noted are these: Homo sapiens, Fibroblast, higher proliferation, no contact inhibition. On the procedure:
as §1

The subject of data set [4] is CCRF‐CEM (acute lymphoblastic leukemia). In words: Cytotoxic activity against CCRF-CEM. The following applies: Homo sapiens, average of at least three independent experiments. The format is cell-based. As for the experimental part: as §1
Data set [5] concerns K562 (chronic myeloid leukemia). In words: Cytotoxic activity against K562. The format is cell-based. The following applies: Homo sapiens, average of at least three independent experiments. As for the experimental part:
as §1

For data set [6], the system named is CCRF‐CEM‐DNR (resistant to daunorubicine). Kind of data set: Cytotoxic activity against CEM-DNR. Format: cell-based. The following applies: Homo sapiens, daunorubicine-resistant subclone, average of at least three independent experiments. On the procedure: as §1
In data set [7] the test system is HCT116p53 (colorectal carcinoma). In words: Cytotoxic activity against HCT116p53. The format is cell-based. The conditions noted are these: average of at least three independent experiments. On the procedure:
as §1

A further data set relates to K562‐TAX. Kind of data set: Cytotoxic activity against K562-TAX. Format: cell-based. The conditions noted are these: average of at least three independent experiments.
Data set [8] relates to A549 (lung adenocarcinoma). In words: Cytotoxic activity against A549. The format is cell-based. The conditions noted are these: Homo sapiens, average of at least three independent experiments. As for the experimental part: as §1
The test system of data set [9] is BJ‐LD (low‐density seeding variant). Kind of data set: Toxicity to non-tumor fibroblasts BJ-LD. Format: cell-based. The conditions noted are these: Homo sapiens, Fibroblast, higher proliferation, no contact inhibition. As for the experimental part: as §1
The subject of another data set is U2OS. Kind of data set: Cytotoxic activity against U2OS. The following applies: Homo sapiens, average of at least three independent experiments. Format: cell-based.
The test system of data set [10] is lung fibroblast cell line MRC‐5. Kind of data set: Toxicity to non-tumor fibroblasts MRC. The format is cell-based, human. As for the experimental part:
as §1

[11] abbreviates: Homo sapiens, MRC5, non-tumor lung fibroblasts.

`NC(=O)c1cc(-c2[nH]c3ccccc3c(=O)c2O)ccc1N1CCCCC1` [2‐(3‐carboxamide‐4‐piperid‐1‐ylphenyl)‐3‐hydroxy‐4(1H)‐quinolinone]: in the data set with cancer cell lines, the “Activity and selectivity toward cancer cells” value was “significant activity and increased selectivity”.
With `O=c1c(O)c(-c2ccc(N3CCCCC3)c([N+](=O)[O-])c2)[nH]c2ccccc12` [2‐(3‐nitro‐4‐piperid‐1‐ylphenyl)‐3‐hydroxy‐4(1H)‐quinolinone], in the data set on cancer cell lines, the “Activity and selectivity against cancer cell lines” value is reported as “significant activity but low selectivity”.
For the molecule `Nc1c(Cl)cc(-c2[nH]c3ccccc3c(=O)c2O)cc1Cl` [2‐(4‐amino‐3,5‐dichlorophenyl)‐3‐hydroxy‐4(1H)‐quinolinone], the “Activity against various cancer cell lines” value in the data set with cancer cell lines (reported previously, no reference given) is on record as “active”.
For the molecule `O=c1c(O)c(-c2ccc(F)cc2)[nH]c2ccccc12` [2‐(4‐fluorophenyl)‐3‐hydroxy‐4(1H)‐quinolinone], the “Cytotoxicity against cancer cells” value in the data set with cancer cell lines is on record as “low cytotoxicity”.
Regarding `O=c1c(O)c(-c2ccccc2)[nH]c2ccccc12` [2‐phenyl‐3‐hydroxy‐4(1H)‐quinolinone], in the data set with cancer cell lines, the “Activity against cancer cells” value is “no activity”.
On to `Cc1cc(C)n2c1C=C1C=CC(NC(=O)OCCCN3C(=O)CC(SCC(NC(=O)c4ccc5c(=O)c(O)c(-c6ccccc6)[nH]c5c4)C(N)=O)C3=O)=[N+]1[B-]2(F)F` (centres unmarked) [Compound 6], for which the IC50 in data set [1] is above 50 µM; in [2] (Homo sapiens, Skin fibroblast), above 50 µM; in data set [3] it was above 50 µM; in data set [4], 14.6 µM; in data set [5], above 50 µM; in data set [6], above 50 µM. The IC50 (in data set [7]; in the data set on K562‐TAX; in [8]; in data set [9]; with U2OS; in data set [10] (setting [11])) was above 50 µM in each case.
For `Cc1cc(C)n2c1C=C1C=CC(NC(=O)OCCCN3C(=O)CC(SCC(NC(=O)c4ccc5c(=O)c(O)c(-c6ccc(F)cc6)[nH]c5c4)C(N)=O)C3=O)=[N+]1[B-]2(F)F` (centres unmarked) [Compound 7], the IC50 in [1] is above 50 µM; in data set [2] (Homo sapiens, Skin fibroblast) it was above 50 µM; in [3], above 50 µM; in [4], 6.37 µM; in [5] it was above 50 µM; in data set [6], above 50 µM. Besides, the IC50 (in data set [7]; in the data set on K562‐TAX; in data set [8]; in data set [9]; with U2OS; in data set [10] (setting [11])) was above 50 µM in each case.
In the case of `Cc1cc(C)n2c1C=C1C=CC(NC(=O)OCCCN3C(=O)CC(SCC(NC(=O)c4ccc5c(=O)c(O)c(-c6cc(Cl)c(N)c(Cl)c6)[nH]c5c4)C(N)=O)C3=O)=[N+]1[B-]2(F)F` (centres unmarked) [Compound 8], the IC50 is above 50 µM in data set [1]; above 50 µM in [2] (Homo sapiens, Skin fibroblast); above 50 µM in data set [3]; 12.7 µM in data set [4]; above 50 µM in data set [5]; above 50 µM in [6]. Further, the IC50 (in data set [7]; in the data set with K562‐TAX; in [8]; in data set [9]; in the data set on U2OS; in data set [10] (setting [11])) was above 50 µM throughout.
Turning to `Cc1cc(C)n2c1C=C1C=CC(NC(=O)OCCCN3C(=O)CC(SCC(NC(=O)c4ccc5c(=O)c(O)c(-c6ccc(N7CCCCC7)c([N+](=O)[O-])c6)[nH]c5c4)C(N)=O)C3=O)=[N+]1[B-]2(F)F` (centres unmarked) [Compound 9], the IC50 in [1] is above 50 µM; in data set [2] (Homo sapiens, Skin fibroblast) it was above 50 µM; in [4], above 50 µM; in [5], 4.05 µM; in data set [6], above 50 µM; in data set [7], above 50 µM. The IC50 (in the data set on K562‐TAX; in [8]; with U2OS; in data set [10] (setting [11])) was above 50 µM throughout.
In the case of `Cc1cc(C)n2c1C=C1C=CC(NC(=O)OCCCN3C(=O)CC(SCC(NC(=O)c4ccc5c(=O)c(O)c(-c6ccc(N7CCCCC7)c(C(N)=O)c6)[nH]c5c4)C(N)=O)C3=O)=[N+]1[B-]2(F)F` (centres unmarked) [Compound 10], the IC50 in data set [1] was above 50 µM; in data set [2] (Homo sapiens, Skin fibroblast), above 50 µM; in data set [3] it was above 50 µM; in data set [4] it was 5.1 µM; in data set [5], above 50 µM; in data set [6], above 50 µM. The half-inhibitory concentration (IC50) in data set [7] is above 50 µM; with K562‐TAX it was 49.6 µM; in [8], above 50 µM; in data set [9] it was above 50 µM; in the data set with U2OS, above 50 µM; in [10] (setting [11]) it was above 50 µM.
With `Cc1cc(C)n2c1C=C1C=CC(NC(=O)OCCSSCC(NC(=O)c3ccc4c(=O)c(O)c(-c5ccccc5)[nH]c4c3)C(N)=O)=[N+]1[B-]2(F)F` (centres unmarked) [Compound 11], the IC50 was above 50 µM in data set [1]; above 50 µM in data set [2] (Homo sapiens, Skin fibroblast); above 50 µM in [3]; 19.7 µM in data set [4]; 49.8 µM in data set [5]; 34.4 µM in data set [6]. In addition, the IC50 in data set [7] was above 50 µM; with K562‐TAX it was 39.8 µM; in data set [8] it was 49.9 µM; in data set [9], above 50 µM; with U2OS it was above 50 µM; in [10] (setting [11]), above 50 µM.
Turning to `Cc1cc(C)n2c1C=C1C=CC(NC(=O)OCCSSCC(NC(=O)c3ccc4c(=O)c(O)c(-c5ccc(F)cc5)[nH]c4c3)C(N)=O)=[N+]1[B-]2(F)F` (centres unmarked) [Compound 12], the IC50 is above 50 µM in [1]; above 50 µM in data set [2] (Homo sapiens, Skin fibroblast); above 50 µM in data set [3]; 8.14 µM in data set [4]; 44.6 µM in data set [5]; 26.5 µM in data set [6]. The IC50 was 49.8 µM in [7]; 33.6 µM with K562‐TAX; 46.4 µM in data set [8]; above 50 µM in [9]; 42.3 µM in the data set on U2OS; above 50 µM in data set [10] (setting [11]).
`Cc1cc(C)n2c1C=C1C=CC(NC(=O)OCCSSCC(NC(=O)c3ccc4c(=O)c(O)c(-c5cc(Cl)c(N)c(Cl)c5)[nH]c4c3)C(N)=O)=[N+]1[B-]2(F)F` (centres unmarked) [Compound 13]: the IC50 in data set [1] was above 50 µM; in data set [2] (Homo sapiens, Skin fibroblast) it was above 50 µM; in [3], above 50 µM; in [4] it was 2.59 µM; in data set [5], 41.4 µM; in [6], 40.1 µM. Besides, the IC50 is above 50 µM in data set [7]; 41.8 µM with K562‐TAX; above 50 µM in [8]; above 50 µM in data set [9]; above 50 µM with U2OS; above 50 µM in data set [10] (setting [11]).
Consider `Cc1cc(C)n2c1C=C1C=CC(NC(=O)OCCSSCC(NC(=O)c3ccc4c(=O)c(O)c(-c5ccc(N6CCCCC6)c([N+](=O)[O-])c5)[nH]c4c3)C(N)=O)=[N+]1[B-]2(F)F` (centres unmarked) [Compound 14], for which the IC50 was 39.7 µM in data set [1]; above 50 µM in data set [2] (Homo sapiens, Skin fibroblast); above 50 µM in data set [3]; 1.52 µM in data set [4]; 29.9 µM in [5]; 37.9 µM in [6]. Further, the IC50 in [7] is 42.6 µM; in the data set on K562‐TAX, 40.6 µM; in [8] it was 46.3 µM; in data set [9], above 50 µM; with U2OS, 44.1 µM; in [10] (setting [11]) it was above 50 µM.
Regarding `Cc1cc(C)n2c1C=C1C=CC(NC(=O)OCCSSCC(NC(=O)c3ccc4c(=O)c(O)c(-c5ccc(N6CCCCC6)c(C(N)=O)c5)[nH]c4c3)C(N)=O)=[N+]1[B-]2(F)F` (centres unmarked) [Compound 15], the IC50 is above 50 µM in [1]; above 50 µM in data set [2] (Homo sapiens, Skin fibroblast); above 50 µM in [3]; above 50 µM in [4]; above 50 µM in [5]; 46.2 µM in [6]. Moreover, the IC50 in [7] was above 50 µM; in the data set with K562‐TAX it was 46.2 µM; in data set [8], above 50 µM; in data set [9] it was above 50 µM; in the data set with U2OS it was above 50 µM; in [10] (setting [11]) it was above 50 µM.
On to `Cc1cc(C)n2c1C=C1C=CC(N)=[N+]1[B-]2(F)F` [Compound 16, amino‐BODIPY], for which the IC50 in [1] was 11.6 µM; in [2], 49.7 µM; in data set [2] (Homo sapiens, Skin fibroblast), above 40 µM; in [3], 26.9 µM; in [4], 4.25 µM; in data set [5], 3.29 µM. Besides, the IC50 in data set [6] was found to be 5.08 µM; in data set [7] it was 12.7 µM; in the data set on K562‐TAX, 6.41 µM; in [8] it was 47.2 µM; in data set [9] it was 28.1 µM; in the data set on U2OS it was 19.8 µM. Besides, the IC50 in data set [10] (setting [11]) is above 40 µM; in data set [10] (non-tumor lung fibroblasts), 40.1 µM.
